Test results taken from PMC11345836 (Journal of Medicinal Chemistry, 2024).
Values after ≈ are worked out from the molar mass of the structure shown. Where two headings read alike, the source gives them in different places.

Legend:
[1] = Solubility of solid forms; assay type: physicochemical
[2] = cited from earlier work
[3] = cited from earlier work; remark: listed apart in the source
[4] = cited from earlier work; remark: listed apart in the source
[5] = cited from earlier work; remark: listed apart in the source
[6] = cited from earlier work; remark: listed apart in the source
[7] = 0.3–10 μM; cited from earlier work
[8] = 0.3–10 μM; cited from earlier work; remark: listed apart in the source
[9] = 0.3–10 μM; cited from earlier work; remark: listed apart in the source
[10] = 2–200 μM; cited from earlier work
[11] = NMR EXSY rotamer exchange kinetics; details: for Rotamer exchange in EXSY: 300 ms mixing time at 298 K; for Torsion Rotation t1/2: extrapolated to 298 K
[12] = rat, p.o. 10 mg/kg, fed
[13] = Rat liver microsome stability; details: for microsomal CLint: rat, microsomes; for predicted hepatic clearance, rat: scaled from rat liver microsomes
Shake-flask LogD = assay type: physicochemical

CC(C)(C)[C@H](NC(=O)C(F)(F)F)C(=O)N1C[C@H]2[C@@H]([C@H]1C(=O)N[C@H](C#N)C[C@@H]1CCNC1=O)C2(C)C [Compound 1, nirmatrelvir]
solubility ([1]; Form: Anhydrous): 1200 µg/mL (≈ 2.4 mM)
solubility ([1]; Form: MTBE): 7210 µg/mL (≈ 14.4 mM)
CLint,app, substrate depletion in HLM [2]: 28.8 µL/min/mg
predicted hepatic clearance, human ([2]; from substrate depletion in HLM): 6.3 mL/min/kg
observed CLp, rats [3]: 22.7 mL/min/kg
observed CLp, monkeys [4]: 15.8 mL/min/kg
predicted hepatic clearance, rats [5]: 5.8 mL/min/kg
predicted hepatic clearance, monkeys [6]: 25 mL/min/kg
fu,p rat plasma [7]: 0.47–0.49
fu,p monkey plasma [8]: 0.39–0.50
fu,p human plasma [9]: 0.30–0.33
fu,p dog plasma [10]: 0.024–0.69
Energy of Rotation ([11]; Form: Anhydrous): 20.4 kcal/mol
Rotamer exchange in EXSY ([11]; Form: Anhydrous): No
Torsion Rotation t1/2 ([11]; Form: Anhydrous): 10.54 min
Energy of Rotation ([11]; Form: MTBE): 20.2 kcal/mol
Rotamer exchange in EXSY ([11]; Form: MTBE): No
Torsion Rotation t1/2 ([11]; Form: MTBE): 10.99 min

COC(=O)N[C@H](C(=O)N1C[C@H](C(F)(F)F)C[C@H]1C(=O)N[C@H](C#N)C[C@@H]1CCCNC1=O)C(C)C [Compound 12, Methyl ((S)-1-((2S,4R)-2-(((S)-1-cyano-2-((S)-2-oxopiperidin-3-yl)ethyl)carbamoyl)-4-(trifluoromethyl)pyrrolidin-1-yl)-3-methyl-1-oxobutan-2-yl)carbamate]
Fa × Fg ([12]; 50% ASD): 15.8 (17.1, 14.5) %
Oral F ([12]; 50% ASD): 8.1 (8.8, 7.5) %
Fa × Fg ([12]; amorphous, solution): 14.7 (12.3, 17.6) %
Oral F ([12]; amorphous, solution): 7.7 (6.3,9.0) %
microsomal CLint [13]: < 5.8 µL/min/mg
predicted hepatic clearance, rat [13]: < 11 mL/min/kg

CC(C)(C)[C@H](NC(=O)C(F)(F)F)C(=O)N1C[C@H](OC(F)F)C[C@H]1C(=O)N[C@H](C#N)C[C@@H]1CCNC1=O [Compound 6, (2S,4R)-N-((S)-1-Cyano-2-((S)-2-oxopyrrolidin-3-yl)ethyl)-4-(difluoromethoxy)-1-((S)-3,3-dimethyl-2-(2,2,2-trifluoroacetamido)butanoyl)pyrrolidine-2-carboxamide]
Fa × Fg ([12]; 50% ASD): 7.2 (7.3, 6.9) %
Oral F ([12]; 50% ASD): 4.2 (4.3, 4.1) %
Fa × Fg ([12]; crystalline, suspension): 20.2 (20.0, 20.4) %
microsomal CLint [13]: < 5.8 µL/min/mg
predicted hepatic clearance, rat [13]: < 11 mL/min/kg

Cc1cccc(C)c1OCC(=O)N[C@@H](Cc1ccccc1)[C@@H](O)C[C@H](Cc1ccccc1)NC(=O)[C@H](C(C)C)N1CCCNC1=O [lopinavir]
logD (Shake-flask LogD): 3.8

Cc1cnc(C(=O)N[C@H]2CCCCC/C=C\[C@@H]3C[C@@]3(C(=O)NS(=O)(=O)C3CC3)NC(=O)[C@@H]3C[C@@H](Oc4nc5ccccc5c5ccccc45)CN3C2=O)cn1 [paritaprevir]
logD (Shake-flask LogD): 3.1

COC(=O)N[C@H](C(=O)N1C[C@H](OC(F)(F)F)C[C@H]1C(=O)N[C@H](C#N)C[C@@H]1CCNC1=O)C(C)(C)C [Compound 5, Methyl ((S)-1-((2S,4R)-2-(((S)-1-cyano-2-((S)-2-oxopyrrolidin-3-yl)ethyl)carbamoyl)-4-(trifluoromethoxy)pyrrolidin-1-yl)-3,3-dimethyl-1-oxobutan-2-yl)carbamate]
Fa × Fg ([12]; amorphous, solution): 12.2 (11.4, 13.2) %
Oral F ([12]; amorphous, solution): 8.6 (8.0, 9.2) %
microsomal CLint [13]: < 5.8 µL/min/mg
predicted hepatic clearance, rat [13]: < 11 mL/min/kg
